“And” between values parts separate entries of the source, which are not always exact repeats. Identical values can stand only once. “Also recorded” adds a separate entry of the source.
What was measured:
[1] = Cell viability / MTT assay; assay type: cell-based, human; settings: human, S10-3 human hepatoma cells
[2] = system: S10-3 human hepatoma cells; test: Cell viability / MTT assay; assay type: cell-based; settings: highest concentration tolerated by S10-3 cells, MTT, 120 h
HEV-1 [3] = test: HEV-1 subgenomic replicon Renilla luciferase assay in S10-3 cells; assay type: cell-based, Hepatitis E virus; settings: for HEV-1 inhibition (%): subgenomic replicon, at MNTD: RBV 3.12 µM, CQ 0.06 µM, HCQ 0.78 µM, ART 23.43 µM, 48 h
HEV-1 [4] = test: ORF2 protein expression by immunofluorescence assay and western blot; assay type: cell-based, Hepatitis E virus; settings: IFA and western blot, 72 h and 96 h post-transfection, RBV 3.1 µM, ART 23.4 µM
HEV-1 helicase = target: T1, HEV-1 helicase (Hepatitis E virus genotype 1, UniProt P33424); test: Colorimetric ATPase assay of recombinant helicase; assay type: biochemical
T1 sequence (P33424 960-1204): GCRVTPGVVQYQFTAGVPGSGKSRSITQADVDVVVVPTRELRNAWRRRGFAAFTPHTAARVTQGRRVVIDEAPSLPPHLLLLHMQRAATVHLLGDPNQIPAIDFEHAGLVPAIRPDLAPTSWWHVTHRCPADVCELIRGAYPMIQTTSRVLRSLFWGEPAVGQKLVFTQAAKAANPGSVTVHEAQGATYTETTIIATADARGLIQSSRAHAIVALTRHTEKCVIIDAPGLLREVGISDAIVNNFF

HEV-1 RdRp = target: T2, HEV-1 RdRp (Hepatitis E virus genotype 1, UniProt P33424); test: Colorimetric RdRp polymerase assay; assay type: biochemical
T2 sequence (P33424 1199-1693 limits assumed): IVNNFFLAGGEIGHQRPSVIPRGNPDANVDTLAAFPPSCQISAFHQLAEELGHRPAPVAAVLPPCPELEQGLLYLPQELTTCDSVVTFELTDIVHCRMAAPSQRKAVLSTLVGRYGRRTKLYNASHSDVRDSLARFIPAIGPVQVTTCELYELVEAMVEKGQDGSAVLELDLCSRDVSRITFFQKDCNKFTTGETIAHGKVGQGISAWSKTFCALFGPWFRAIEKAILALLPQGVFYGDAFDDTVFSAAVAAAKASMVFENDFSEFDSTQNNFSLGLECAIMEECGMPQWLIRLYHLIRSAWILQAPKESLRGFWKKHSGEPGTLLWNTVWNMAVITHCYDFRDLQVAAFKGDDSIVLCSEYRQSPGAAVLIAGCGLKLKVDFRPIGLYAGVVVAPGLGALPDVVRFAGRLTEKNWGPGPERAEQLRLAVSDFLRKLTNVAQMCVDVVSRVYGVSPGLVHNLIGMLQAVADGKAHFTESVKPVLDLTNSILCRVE

[5] = oral administration; cited from earlier work
[6] = in silico toxicity studies, cited from earlier work

C[C@H]1[C@H](OC(=O)CCC(=O)O)O[C@@H]2O[C@@]3(C)CC[C@H]4[C@H](C)CC[C@@H]1[C@@]24OO3 [ART, artesunate]
CC50 at 120 h [1]: 189 ± 14.1 µM
MNTD, maximum nontoxic dose [2]: 23.43 µM
TI for HEV-1, therapeutic index (CC50/EC50) (HEV-1 [3]; CC50/EC50): 9.68
HEV-1 inhibition (%) (HEV-1 [3]): > 50%
ORF2 protein levels (HEV-1 [4]): decreased ORF2 levels; also recorded: reduced ORF2 expression significantly
Reversibility of helicase inhibition (HEV-1 helicase): reversible
Helicase ATPase activity inhibition (%) (HEV-1 helicase; 4.8 µM ART, 100 µM ATP): 23%
Helicase ATPase activity inhibition (%) (HEV-1 helicase; 78 µM ART, 100 µM ATP): 55% and ~ 55%
Mode of inhibition of helicase ATPase (HEV-1 helicase; ATP pretreatment assay): competitive inhibitor
Mode of inhibition of helicase ATPase (HEV-1 helicase; enzyme pretreated with ART): noncompetitive inhibitor
ATPase activity (%) (HEV-1 helicase; helicase pre-incubated with 19.5 µM ART 30 min, 50 µM ATP): 62%
ATPase activity (%) (HEV-1 helicase; helicase pre-incubated with 19.5 µM ART 30 min, 100 µM ATP): 75%
ATPase activity (%) (HEV-1 helicase; helicase pre-incubated with ATP 30 min before 19.5 µM ART, 50 µM ATP): ~ 79%
ATPase activity (%) (HEV-1 helicase; helicase pre-incubated with ATP 30 min before 19.5 µM ART, 100 µM ATP): 86%
RdRp polymerase activity inhibition (%) (HEV-1 RdRp; 4.8 µM ART): 38%
RdRp polymerase activity inhibition (%) (HEV-1 RdRp; 78 µM ART): 40%
Elimination half-life [5]: 21 to 72 min
Tmax [5]: less than one hour
Mutagenic, tumorigenic and hepatotoxic potential ([6]; if used in high doses for a long time): moderately mutagenic, tumorigenic, and hepatotoxic
Risk of reproductive or developmental toxicity [6]: no risk

CCN(CC)CCCC(C)Nc1ccnc2cc(Cl)ccc12 (stereo not shown) [CQ, chloroquine]
CC50 at 120 h [1]: 4.77 ± 0.74 µM
MNTD, maximum nontoxic dose [2]: 0.06 µM
HEV-1 inhibition (%) (HEV-1 [3]): 23 ± 2%

CCN(CCO)CCCC(C)Nc1ccnc2cc(Cl)ccc12 (stereo not shown) [HCQ, hydroxychloroquine]
MNTD, maximum nontoxic dose [2]: 0.78 µM

NC(=O)c1ncn([C@@H]2O[C@H](CO)[C@@H](O)[C@H]2O)n1 [RBV, ribavirin]
CC50 at 120 h [1]: 39 ± 5.9 µM
MNTD, maximum nontoxic dose [2]: 3.12 µM
ORF2 protein levels (HEV-1 [4]): decreased ORF2 levels; also recorded: reduced ORF2 expression significantly

NC(=O)c1ncn([C@@H]2O[C@H](CO[P@@](=O)(O)O[P@](=O)(O)OP(=O)(O)O)[C@@H](O)[C@H]2O)n1 [RTP, Ribavirin triphosphate]
CC50 at 120 h [1]: 169 ± 1.6 µM
MNTD, maximum nontoxic dose [2]: 7.8 µM
Helicase ATPase activity inhibition (%) (HEV-1 helicase; 3.5 µM RTP, 100 µM ATP): 22%
inhibition at 28 µM (HEV-1 RdRp; read-out: RdRp polymerase activity inhibition (%), 28 µM RTP (maximum)): 28%

Source: article PMC10141844 (Archives of Virology, 2023)
